Consider 17 compounds from patent US10246453B2, “Benzenesulfonamide compounds and their use as therapeutic agents” (Xenon Pharmaceuticals Inc., priority 2016, dated 2019).

Series [1] has as its target NaV1.1 (Homo sapiens (Human), UniProt P35498). Briefly: Sodium Influx Assay (Flux), NaV1.1. The series is classed as cell-based. The settings on record: Trex HEK293 cells, ANG2 dye; arithmetic mean.
Series [2] concerns the target NaV1.6 (Homo sapiens (Human), UniProt Q9UQD0). Briefly: Sodium Influx Assay (Flux), NaV1.6. Particulars: read-out: Flux NaV1.6 IC50; Trex HEK293 cells, ANG2 dye; arithmetic mean.
Series [3] addresses NaV1.5 (Homo sapiens (Human), UniProt Q14524). The experiment in a line: Sodium Influx Assay (Flux), NaV1.5. The settings on record: read-out: Flux NaV1.5 IC50; Trex HEK293 cells, ANG2 dye; arithmetic mean.

Molecules are shown by their SMILES.

NaV1.5, sequence (Q14524 other isoform, or with tags, fused parts or gaps): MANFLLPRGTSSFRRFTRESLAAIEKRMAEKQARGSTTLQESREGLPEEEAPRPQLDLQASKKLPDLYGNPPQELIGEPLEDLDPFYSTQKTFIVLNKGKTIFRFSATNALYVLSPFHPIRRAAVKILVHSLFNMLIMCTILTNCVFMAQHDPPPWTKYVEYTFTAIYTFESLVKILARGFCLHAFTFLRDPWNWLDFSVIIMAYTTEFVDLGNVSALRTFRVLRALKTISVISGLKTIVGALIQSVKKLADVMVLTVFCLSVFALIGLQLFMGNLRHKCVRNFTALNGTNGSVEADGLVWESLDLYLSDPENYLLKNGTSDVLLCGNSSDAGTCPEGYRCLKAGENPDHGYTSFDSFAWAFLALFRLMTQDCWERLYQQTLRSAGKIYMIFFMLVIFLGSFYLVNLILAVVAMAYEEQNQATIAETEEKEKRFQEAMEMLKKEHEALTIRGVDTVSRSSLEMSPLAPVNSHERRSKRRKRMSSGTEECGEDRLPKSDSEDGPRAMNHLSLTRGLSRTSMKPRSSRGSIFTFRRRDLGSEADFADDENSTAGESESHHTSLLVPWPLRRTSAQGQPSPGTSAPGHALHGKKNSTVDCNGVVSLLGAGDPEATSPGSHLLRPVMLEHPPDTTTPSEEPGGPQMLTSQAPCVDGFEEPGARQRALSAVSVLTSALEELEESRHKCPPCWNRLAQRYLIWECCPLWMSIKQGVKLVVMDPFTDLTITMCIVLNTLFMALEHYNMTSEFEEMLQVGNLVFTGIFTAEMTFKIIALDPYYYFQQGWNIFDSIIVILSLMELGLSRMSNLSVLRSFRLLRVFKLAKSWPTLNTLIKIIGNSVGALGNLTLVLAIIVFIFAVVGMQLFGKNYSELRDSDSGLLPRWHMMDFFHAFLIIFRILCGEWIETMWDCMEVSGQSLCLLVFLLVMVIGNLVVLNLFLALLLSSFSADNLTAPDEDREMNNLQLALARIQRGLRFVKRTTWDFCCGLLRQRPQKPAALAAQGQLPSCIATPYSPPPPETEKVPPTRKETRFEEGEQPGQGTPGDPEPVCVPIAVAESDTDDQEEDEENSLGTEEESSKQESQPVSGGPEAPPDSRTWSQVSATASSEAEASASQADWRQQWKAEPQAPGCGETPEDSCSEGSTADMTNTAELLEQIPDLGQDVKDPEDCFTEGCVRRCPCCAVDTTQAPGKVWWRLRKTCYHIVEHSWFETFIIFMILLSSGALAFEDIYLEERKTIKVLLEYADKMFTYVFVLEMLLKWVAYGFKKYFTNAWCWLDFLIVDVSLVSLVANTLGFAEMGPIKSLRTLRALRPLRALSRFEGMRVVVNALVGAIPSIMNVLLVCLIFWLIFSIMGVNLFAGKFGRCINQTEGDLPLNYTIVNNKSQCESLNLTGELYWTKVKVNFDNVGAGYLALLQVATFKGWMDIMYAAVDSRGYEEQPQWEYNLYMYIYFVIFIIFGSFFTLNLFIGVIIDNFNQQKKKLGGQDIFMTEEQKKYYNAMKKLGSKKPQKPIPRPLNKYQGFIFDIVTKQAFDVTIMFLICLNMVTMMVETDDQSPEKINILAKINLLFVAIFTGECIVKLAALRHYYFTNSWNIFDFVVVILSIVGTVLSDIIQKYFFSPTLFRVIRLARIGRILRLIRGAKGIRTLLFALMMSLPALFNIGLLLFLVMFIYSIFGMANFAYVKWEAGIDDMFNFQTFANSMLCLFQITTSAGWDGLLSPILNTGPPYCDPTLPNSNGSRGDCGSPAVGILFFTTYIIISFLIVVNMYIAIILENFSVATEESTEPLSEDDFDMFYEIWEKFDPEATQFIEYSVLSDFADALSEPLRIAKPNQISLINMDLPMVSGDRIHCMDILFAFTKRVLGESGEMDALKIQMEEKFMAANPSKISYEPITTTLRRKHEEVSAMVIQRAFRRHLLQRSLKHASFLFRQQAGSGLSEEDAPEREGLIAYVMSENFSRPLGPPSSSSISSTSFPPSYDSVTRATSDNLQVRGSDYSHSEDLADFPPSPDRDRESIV

The term IC50 denotes the concentration needed to halve the response being measured. As for `Cc1coc(CN2CC[C@H](N(C)c3cc(F)c(S(=O)(=O)Nc4cscn4)cc3C)C2)n1` [Example 139, (S)-2-fluoro-5-methyl-4-(methyl(1-((4-methyloxazol-2-yl)methyl)pyrrolidin-3-yl)amino)-N-(thiazol-4-yl)benzenesulfonamide], the IC50 was more than 30 µM in series [1], 7.73 µM in series [2] and more than 30 µM in series [3].
For the compound `Cc1cc(S(=O)(=O)Nc2cscn2)c(F)cc1N(C)[C@H]1CCN(Cc2cscn2)C1` [Example 140, (S)-2-fluoro-5-methyl-4-(methyl(1-(thiazol-4-ylmethyl)pyrrolidin-3-yl)amino)-N-(thiazol-4-yl)benzenesulfonamide], the half-inhibitory concentration (IC50) in series [1] was more than 30 µM; in series [2], 2.08 µM; in series [3], more than 30 µM.
`Cc1cc(S(=O)(=O)Nc2cscn2)c(F)cc1N(C)[C@H]1CCN(Cc2cc(C)n(C)n2)C1` [Example 141, (S)-4-((1-((1,5-dimethyl-1H-pyrazol-3-yl)methyl)pyrrolidin-3-yl)(methyl)amino)-2-fluoro-5-methyl-N-(thiazol-4-yl)benzenesulfonamide]: the 50% inhibitory concentration (IC50) in series [1] was more than 30 µM; in series [2], 0.582 µM; in series [3] it was more than 30 µM.
For the compound `Cc1cc(S(=O)(=O)Nc2cscn2)c(F)cc1N(C)[C@H]1CCN(Cc2ccc(C(F)(F)F)o2)C1` [Example 142, (S)-2-fluoro-5-methyl-4-(methyl(1-((5-(trifluoromethyl)furan-2-yl)methyl)pyrrolidin-3-yl)amino)-N-(thiazol-4-yl)benzenesulfonamide], the IC50 worked out at 3.7 µM in series [1], 0.531 µM in series [2] and 6.76 µM in series [3].
Consider `Cc1cc(S(=O)(=O)Nc2cscn2)c(F)cc1N(C)[C@H]1CCN(Cc2cocn2)C1` [Example 143, (S)-2-fluoro-5-methyl-4-(methyl(1-(oxazol-4-ylmethyl)pyrrolidin-3-yl)amino)-N-(thiazol-4-yl)benzenesulfonamide], for which the half-maximal inhibitory concentration (IC50) is more than 30 µM in series [1], 10.2 µM in series [2] and more than 30 µM in series [3].
As for `Cc1cc(S(=O)(=O)Nc2cscn2)c(F)cc1N(C)[C@H]1CCN(Cc2nc3ccccc3s2)C1` [Example 144, (S)-4-((1-(benzo[d]thiazol-2-ylmethyl)pyrrolidin-3-yl)(methyl)amino)-2-fluoro-5-methyl-N-(thiazol-4-yl)benzenesulfonamide], the IC50 in series [1] is 6.72 µM; in series [2], 4.8 µM; in series [3] it was 8.47 µM.
In the case of `Cc1cc(S(=O)(=O)Nc2cscn2)c(F)cc1N(C)[C@H]1CCN(Cc2nc(C(C)C)cs2)C1` [Example 145, (S)-2-fluoro-4-((1-((4-isopropylthiazol-2-yl)methyl)pyrrolidin-3-yl)(methyl)amino)-5-methyl-N-(thiazol-4-yl)benzenesulfonamide], the values for the IC50 in series [1], in series [2] and in series [3] were 9.63 µM, 0.515 µM and 17.1 µM, respectively.
The corresponding values for `Cc1cc(S(=O)(=O)Nc2cscn2)c(F)cc1N(C)[C@H]1CCN(Cc2ncc(Cl)s2)C1` [Example 146, (S)-4-((1-((5-chlorothiazol-2-yl)methyl)pyrrolidin-3-yl)(methyl)amino)-2-fluoro-5-methyl-N-(thiazol-4-yl)benzenesulfonamide] are 9.32 µM, 4.4 µM and 12.1 µM.
In the case of `Cc1cc(S(=O)(=O)Nc2cscn2)c(F)cc1N(C)[C@H]1CCN(Cc2ccn(C(F)F)n2)C1` [Example 147, (S)-4-((1-((1-(difluoromethyl)-1H-pyrazol-3-yl)methyl)pyrrolidin-3-yl)(methyl)amino)-2-fluoro-5-methyl-N-(thiazol-4-yl)benzenesulfonamide], the 50% inhibitory concentration (IC50) in series [1] is more than 30 µM; in series [2], 0.482 µM; in series [3] it was more than 30 µM.
As for `Cc1ccccc1CN1CC[C@H](N(C)c2cc(F)c(S(=O)(=O)Nc3cscn3)cc2C)C1` [Example 148, (S)-2-fluoro-5-methyl-4-(methyl(1-(2-methylbenzyl)pyrrolidin-3-yl)amino)-N-(thiazol-4-yl)benzenesulfonamide], the values for the 50% inhibitory concentration (IC50) in series [1], in series [2] and in series [3] were 7.58 µM, 0.129 µM and 12.4 µM, respectively.
For `Cc1cc(S(=O)(=O)Nc2cscn2)c(F)cc1N(C)[C@H]1CCN(C2Cc3ccccc3C2)C1` [Example 149, (S)-4-((1-(2,3-dihydro-1H-inden-2-yl)pyrrolidin-3-yl)(methyl)amino)-2-fluoro-5-methyl-N-(thiazol-4-yl)benzenesulfonamide] the same measures were 6.02 µM, 0.613 µM and 9.18 µM.
With `Cc1cn(C)c(CN2CC[C@H](N(C)c3cc(F)c(S(=O)(=O)Nc4cscn4)cc3C)C2)n1` [Example 150, (S)-4-((1-((1,4-dimethyl-1H-imidazol-2-yl)methyl)pyrrolidin-3-yl)(methyl)amino)-2-fluoro-5-methyl-N-(thiazol-4-yl)benzenesulfonamide], the IC50 in series [1] was more than 30 µM; in series [2] it was 0.954 µM; in series [3], more than 30 µM.
Take `Cc1cc(S(=O)(=O)Nc2cscn2)c(F)cc1N(C)[C@H]1CCN(Cc2cc3n(n2)CCCC3)C1` [Example 151, (S)-2-fluoro-5-methyl-4-(methyl(1-((4,5,6,7-tetrahydropyrazolo[1,5-a]pyridin-2-yl)methyl)pyrrolidin-3-yl)amino)-N-(thiazol-4-yl)benzenesulfonamide]: the IC50 in series [1] is more than 30 µM; in series [2], 0.41 µM; in series [3], more than 30 µM.
As for `Cc1cc(S(=O)(=O)Nc2cscn2)c(F)cc1N(C)[C@H]1CCN(Cc2nc(C(F)(F)F)cs2)C1` [Example 152, (S)-2-fluoro-5-methyl-4-(methyl(1-((4-(trifluoromethyl)thiazol-2-yl)methyl)pyrrolidin-3-yl)amino)-N-(thiazol-4-yl)benzenesulfonamide], the IC50 in series [1] worked out at 7.21 µM; in series [2] it was 1.7 µM; in series [3], 8.91 µM.
Consider `Cc1cc(S(=O)(=O)Nc2cscn2)c(F)cc1N(C)[C@H]1CCN(Cc2ccn(CC(F)F)n2)C1` [Example 153, (S)-4-((1-((1-(2,2-difluoroethyl)-1H-pyrazol-3-yl)methyl)pyrrolidin-3-yl)(methyl)amino)-2-fluoro-5-methyl-N-(thiazol-4-yl)benzenesulfonamide 2,2,2-trifluoroacetate], for which the values for the IC50 in series [1], in series [2] and in series [3] were more than 30 µM, 0.185 µM and more than 30 µM, respectively.
On to `Cc1nc(CN2CC[C@H](N(C)c3cc(F)c(S(=O)(=O)Nc4cscn4)cc3C)C2)c(C(F)(F)F)o1` [Example 154, (S)-2-fluoro-5-methyl-4-(methyl(1-((2-methyl-5-(trifluoromethyl)oxazol-4-yl)methyl)pyrrolidin-3-yl)amino)-N-(thiazol-4-yl)benzenesulfonamide 2,2,2-trifluoroacetate], for which the figures for the IC50 in series [1], in series [2] and in series [3] were 16.6 µM, 5.57 µM and 21.7 µM, respectively.
For the compound `Cc1cc(S(=O)(=O)Nc2cscn2)c(F)cc1N(C)[C@H]1CCN(Cc2ccccc2F)C1` [Example 155, (S)-2-fluoro-4-((1-(2-fluorobenzyl)pyrrolidin-3-yl)(methyl)amino)-5-methyl-N-(thiazol-4-yl)benzenesulfonamide], the IC50 amounted to 12.6 µM in series [1], 0.22 µM in series [2] and 14.4 µM in series [3].
